According to ChEMBL document CHEMBL2346624, “Pyrrolopyrazines as selective spleen tyrosine kinase inhibitors” (J Med Chem, 2013):
Converted amounts (≈) assume the structure as drawn.

Experiments:
Liver microsomes = assay: Metabolic stability in human liver microsomes assessed as GSH adduct formation; type: ADME, Microsome
[1] = Metabolic stability in human liver microsomes; type: ADME, Microsome; conditions: read-out: Stability
[2] = Metabolic stability in rat liver microsomes; type: ADME, Microsome; conditions: read-out: Stability
[3] = Aqueous solubility of the compound by lyophilisate solubility assay; type: physicochemical; conditions: buffer

| Stability (Liver microsomes) | CLhep predicted [1] | CLhep predicted [2] | solubility [3] | SMILES |
| --- | --- | --- | --- | --- |
| Stable | 9 mL/min/kg | 46 mL/min/kg | < 1 µg/mL | CN(C)CCCn1nc(-c2cnc3[nH]cc(C(=O)NC(C)(C)C)c3n2)c2cc(OC(F)F)ccc21 |
| – | – | – | < 1 µg/mL | COc1ccc(Nc2nc(-c3cccc(C(=O)Nc4ccc(C(=O)O)cc4)c3)nc3scnc23)cc1OC |
| – | 18 mL/min/kg | 51 mL/min/kg | < 1 µg/mL | Cn1nc(-c2cnc3[nH]cc(C(=O)NC(C)(C)C)c3n2)c2cc(OC(F)F)ccc21 |
| – | 19 mL/min/kg | 50 mL/min/kg | < 1 µg/mL | CC(C)NC(=O)c1c[nH]c2ncc(-c3nn(C)c4c3CC(C)(C)CC4)nc12 |
| Unstable | 18 mL/min/kg | 47 mL/min/kg | < 1 µg/mL | COc1cc(Nc2ncc(F)c(Nc3ccc4c(n3)N(COP(=O)(O)O)C(=O)C(C)(C)O4)n2)cc(OC)c1OC [FOSTAMATINIB] |
| Stable | 3 mL/min/kg | 10 mL/min/kg | < 1 µg/mL | NC(=O)c1cnc(N[C@@H]2CCCC[C@@H]2N)nc1Nc1cccc(-n2nccn2)c1 |
| Stable | 10 mL/min/kg | 30 mL/min/kg | < 1 µg/mL | CC(C)(C)NC(=O)c1c[nH]c2ncc(-c3n[nH]c4ccc(OC(F)F)cc34)nc12 |
| – | 12 mL/min/kg | 41 mL/min/kg | 586 µg/mL (≈ 1170 µM) | CN(C)CCCn1nc(-c2cnc3[nH]cc(C(=O)NC(C)(C)CO)c3n2)c2cc(OC(F)F)ccc21 |
| – | 8 mL/min/kg | 49 mL/min/kg | < 1 µg/mL | CC(C)(C)NC(=O)c1c[nH]c2ncc(-c3nn(CCC(O)CO)c4ccc(OC(F)F)cc34)nc12 (stereo unspecified) |
| – | 11 mL/min/kg | 37 mL/min/kg | < 1 µg/mL | COc1ccc2cnn(-c3cnc4[nH]cc(C(=O)NC(C)(C)C)c4n3)c2c1 |
| Stable | 16 mL/min/kg | 47 mL/min/kg | < 1 µg/mL | C[C@@H](CO)NC(=O)c1c[nH]c2ncc(-c3nn(C)c4cc(Cl)ccc34)nc12 |
| – | 17 mL/min/kg | 43 mL/min/kg | < 1 µg/mL | Cn1nc(-c2cnc3[nH]cc(C(=O)N[C@H]4C[C@H](O)C4)c3n2)c2ccc(F)cc21 |
| Stable | 3 mL/min/kg | 6 mL/min/kg | < 1 µg/mL | CC(C)(C)NC(=O)c1c[nH]c2ncc(-c3nn(C4CCNCC4)c4cc(F)ccc34)nc12 |
| Stable | 14 mL/min/kg | 35 mL/min/kg | < 1 µg/mL | CC(C)(CO)NC(=O)c1c[nH]c2ncc(-n3ncc4ccc(Cl)cc43)nc12 |
| – | 8 mL/min/kg | 43 mL/min/kg | < 1 µg/mL | CC(C)(C)NC(=O)c1c[nH]c2ncc(-c3nn(CCCS(C)(=O)=O)c4cc(F)ccc34)nc12 |
| – | 4 mL/min/kg | 23 mL/min/kg | < 1 µg/mL | CC(C)(C)NC(=O)c1c[nH]c2ncc(-c3nn(CCC(O)CO)c4cc(F)ccc34)nc12 (stereo unspecified) |
| – | 7 mL/min/kg | 51 mL/min/kg | < 1 µg/mL | CC(C)(C)NC(=O)c1c[nH]c2ncc(-c3n[nH]c4c(CO)cccc34)nc12 |
